What was measured:
[1] = tested on: winter wheat; experiment: Example 6 field trial, stage begin of VERPE blossom: crop damage; type: in vivo, Triticum aestivum; details: 50 g of ai/ha; 28 days after application
Method: (§1) The herbicidal efficacy of the active compounds or active compound mixtures was scored visually using the treated plots in comparison to untreated control plots. The damage and development of all above-ground parts of the plants were recorded. Scoring was carried out using a percentage scale (100% effect=all plants killed; 50% effect=50% of the plants and the green parts of the plants killed; 0% effect=no noticeable effect=like control plot. The scores of in each case 4 plots were averaged.
(§2) If the observed activity values already exceed the formal sum of the values for the trials with the individual applications, they also exceed the expected value according to Colby which is calculated using the following formula and which is likewise considered to be an indication of synergism (cf. S. R. Colby; in Weeds 15 (1967) p. 20 to 22):
(§3) Crop plants were grown outdoors on plots under natural outdoor conditions, and seeds or rhizome pieces of typical harmful plants were laid out or the natural weed growth was utilized. […] After the application, for example 2, 4, 6 and 8 weeks after the application, the effect of the preparations was scored visually by comparison with untreated controls (cf. scoring in Section 1). […]

[2] = tested on: Veronica persicaria; experiment: Example 6 field trial, stage begin of VERPE blossom: herbicidal effect; type: in vivo; details: 50 g of ai/ha; 28 days after application
Method: as §1, §2, §3

[3] = tested on: winter wheat; experiment: Example 7a field trial, 2-4 leaf stage: crop damage; type: in vivo, Triticum aestivum; details: 28 days after application
Method: as §1, §2
(§4) Crop plants were grown outdoors on plots under natural outdoor conditions, and seeds or rhizome pieces of typical harmful plants were laid out or the natural weed growth was utilized. Treatment with the compositions according to the invention was carried out after the harmful plants had emerged and the crop plants were, generally, at the 2- to 4-leaf stage; in some cases (as stated), application of individual active compounds or active compound combinations was carried out pre-emergence (cf. Section 1) or post-emergence (cf. Section 2) or as a sequential treatment partly pre-emergence and/or post-emergence. After the application, for example 2, 4, 6 and 8 weeks after the application, the effect of the preparations was scored visually by comparison with untreated controls (cf. scoring in Section 1). In the field trial as well, the compositions according to the invention have synergistic herbicidal activity against a broad spectrum of economically important weed grasses and broad-leaved weeds. […] Moreover, the effects in essential phases of the scoring period were above the expected values according to Colby, also indicating synergism. […]

[4] = tested on: Chenopodium album; experiment: Example 7a field trial, 2-4 leaf stage: herbicidal effect; type: in vivo; details: 28 days after application
Method: as §1, §2, §4

[5] = tested on: winter wheat; experiment: Example 7b field trial, 2-4 leaf stage: crop damage; type: in vivo, Triticum aestivum; details: 50 g of ai/ha; 28 days after application
Method: as §1, §2, §3

[6] = tested on: Stellaria media; experiment: Example 7b field trial, 2-4 leaf stage: herbicidal effect; type: in vivo; details: 50 g of ai/ha; 28 days after application
Method: as §1, §2, §3

[7] = tested on: Galium aparine; experiment: Example 10 pre-emergence application, fall: herbicidal effect; type: in vivo; details: 180 g of ai/ha; 169 days after application
Description: (§5) Seeds or rhizome pieces of monocotyledonous and dicotyledonous weed plants are placed in sandy loam soil in pots and covered with soil. The compositions, formulated in the form of concentrated aqueous solutions, wettable powders or emulsion concentrates, are then applied to the surface of the soil cover as aqueous solution, suspension or emulsion at an application rate of 600 to 800 l of water/ha (converted), in various dosages. After the treatment, the pots are placed in a greenhouse and kept under good growth conditions for the weeds. After the test plants have emerged, the damage to the plants or the negative effects on the emergence is scored visually after a test period of 3 to 4 weeks by comparison with untreated controls. As shown by the test results, the compositions according to the invention have good herbicidal pre-emergence activity against a broad spectrum of weed grasses and broad-leaved weeds.
as §1, §2
(§6) Crop plants were grown outdoors on plots under natural outdoor conditions, and seeds or rhizome pieces of typical harmful plants were laid out or the natural weed growth was utilized. Treatment with the compositions according to the invention was carried out after the harmful plants had emerged and the crop plants were, generally, at the 2- to 4-leaf stage; in some cases (as stated), application of individual active compounds or active compound combinations was carried out pre-emergence (cf. Section 1) or post-emergence (cf. Section 2) or as a sequential treatment partly pre-emergence and/or post-emergence. After the application, for example 2, 4, 6 and 8 weeks after the application, the effect of the preparations was scored visually by comparison with untreated controls (cf. scoring in Section 1). In the field trial as well, the compositions according to the invention have synergistic herbicidal activity against a broad spectrum of economically important weed grasses and broad-leaved weeds. […] Moreover, the effects in essential phases of the scoring period were above the expected values according to Colby, also indicating synergism. In contrast, the crop plants were, as a consequence of the treatments with the herbicidal compositions, damaged only to a small degree, if at all.

[8] = tested on: winter wheat; experiment: Example 10 pre-emergence application, fall: crop damage; type: in vivo, Triticum aestivum; details: winter wheat (Triticum aestivum), in vivo, 169 days
Description: as §5, §1, §2, §6

[9] = tested on: Anthemis arvensis; experiment: Example 16 field trial, post-emergence, 2- to 3-leaf stage: herbicidal effect; type: in vivo; details: 180 g of ai/ha; 69 days after application
Method: as §1, §2, §6

[10] = tested on: Galium aparine; experiment: as above; type: in vivo; details: 180 g of ai/ha; 69 days after application
Method: as §1, §2, §6

[11] = tested on: Lamium ssp.; experiment: as above; type: in vivo; details: 180 g of ai/ha; 69 days after application
Method: as §1, §2, §6

[12] = tested on: Matricaria chamomilla; experiment: as above; type: in vivo; details: 180 g of ai/ha; 69 days after application
Method: as §1, §2, §6

[13] = tested on: Myosotis arvensis; experiment: as above; type: in vivo; details: 180 g of ai/ha; 69 days after application
Method: as §1, §2, §6

[14] = tested on: Papaver rhoeas; experiment: as above; type: in vivo; details: 180 g of ai/ha; 69 days after application
Method: as §1, §2, §6

[15] = tested on: Viola arvensis; experiment: as above; type: in vivo; details: 180 g of ai/ha; 69 days after application
Method: as §1, §2, §6

[16] = tested on: winter barley; experiment: Example 16 field trial, post-emergence, 2- to 3-leaf stage: crop damage; type: in vivo, Hordeum vulgare; details: in vivo
Method: as §1, §2, §3

[17] = tested on: winter wheat; experiment: as above; type: in vivo, Triticum aestivum; details: in vivo
Method: as §1, §2, §3

[18] = tested on: winter barley; experiment: Example 1 field trial, 2-4 leaf stage: crop damage; type: in vivo, Hordeum vulgare; details: 28 days after application
Method: as §1, §2, §6

[19] = tested on: Papaver rhoeas; experiment: Example 1 field trial, 2-4 leaf stage: herbicidal effect; type: in vivo; details: 28 days after application
Method: as §1, §2, §6

[20] = tested on: winter barley; experiment: Example 2 field trial, fall application 2-4 leaf stage: crop damage; type: in vivo, Hordeum vulgare; details: 45 days after the application
Method: as §1, §2, §3

[21] = tested on: Papaver rhoeas; experiment: Example 2 field trial, fall application 2-4 leaf stage: herbicidal effect; type: in vivo; details: 45 days after the application
Method: as §1, §2, §3

[22] = tested on: winter wheat; experiment: Example 3 field trial, fall application 2-4 leaf stage: crop damage; type: in vivo, Triticum aestivum; details: 60 days after application
Method: as §1, §2, §3

[23] = tested on: Viola arvensis; experiment: Example 3 field trial, fall application 2-4 leaf stage: herbicidal effect; type: in vivo; details: 60 days after application
Method: as §1, §2, §3

[24] = tested on: winter wheat; experiment: Example 4 field trial, application fall 2-4 leaf stage: crop damage; type: in vivo, Triticum aestivum; details: 100 g of ai/ha; 60 days after application
Method: as §1, §2, §3

[25] = tested on: Aphanes arvensis; experiment: Example 4 field trial, application fall 2-4 leaf stage: herbicidal effect; type: in vivo; details: 100 g of ai/ha; 60 days after application
Method: as §1, §2, §3

[26] = tested on: Veronica hederifolia; experiment: as above; type: in vivo; details: 100 g of ai/ha; 60 days after application
Method: as §1, §2, §3

[27] = tested on: winter barley; experiment: Example 5 field trial, 2-4 leaf stage: crop damage; type: in vivo, Hordeum vulgare; details: 28 days after application
Method: as §1, §2, §4

[28] = tested on: Papaver rhoeas; experiment: Example 5 field trial, 2-4 leaf stage: herbicidal effect; type: in vivo; details: 28 days after application
Method: as §1, §2, §4

CCC(CCc1ccccc1)Nc1nc(N)nc(C(C)(C)F)n1 (stereo not drawn) [(A3), 4-amino-6-(1-fluoro-1-methylethyl)-2-(3-phenyl-1-ethylpropylamino)-1,3,5-triazine]
damage, TRZAW [1]: 0% | herbicidal effect, VERPE [2]: 55% | damage, TRZAW ([3]; 25 g of ai/ha): 1% | damage, TRZAW ([3]; 50 g of ai/ha): 0% | damage, TRZAW ([3]; 100 g of ai/ha): 10% | herbicidal effect, CHEAL ([4]; 25 g of ai/ha): 5% | herbicidal effect, CHEAL ([4]; 50 g of ai/ha): 35% | herbicidal effect, CHEAL ([4]; 100 g of ai/ha): 85% | damage, TRZAW [5]: 2% | herbicidal effect, STEME [6]: 48%

CC(C)N(C(=O)COc1nnc(C(F)(F)F)s1)c1ccc(F)cc1 [(B1.2.1), fluthiamide, reference compound]
herbicidal effect, GALAP [7]: 45% | damage, TRZAW [8]: 2% | herbicidal effect (%), ANTAR [9]: 25% | herbicidal effect (%), GALAP [10]: 68% | herbicidal effect (%), LAMSS [11]: 87% | herbicidal effect (%), MATCH [12]: 61% | herbicidal effect (%), MYOAR [13]: 16% | herbicidal effect (%), PAPRH [14]: 12% | herbicidal effect (%), VIOAR [15]: 20% | herbicidal effect (%), HORVW (crop) [16]: 0% | herbicidal effect (%), TRZAW (crop) [17]: 0%

CC(COc1cccc(Cl)c1)Nc1nc(N)nc(C(C)(C)F)n1 (stereo not drawn) [(A4), 4-amino-6-(1-fluoro-1-methylethyl)-2-[2-(3-chlorophenoxy)-1-methylethyl-amino]-1,3,5-triazine]
damage, HORVW ([18]; 25 g of ai/ha): 0% | damage, HORVW ([18]; 50 g of ai/ha): 0% | damage, HORVW ([18]; 100 g of ai/ha): 0% | herbicidal effect, PAPRH ([19]; 25 g of ai/ha): 0% | herbicidal effect, PAPRH ([19]; 50 g of ai/ha): 0% | herbicidal effect, PAPRH ([19]; 100 g of ai/ha): 0% | damage, HORVW ([20]; 50 g of ai/ha): 0% | damage, HORVW ([20]; 100 g of ai/ha): 0% | herbicidal effect, PAPRH ([21]; 50 g of ai/ha): 0% | herbicidal effect, PAPRH ([21]; 100 g of ai/ha): 0% | damage, TRZAW ([22]; 50 g of ai/ha): 0% | damage, TRZAW ([22]; 100 g of ai/ha): 0% | herbicidal effect, VIOAR ([23]; 50 g of ai/ha): 78% | herbicidal effect, VIOAR ([23]; 100 g of ai/ha): 88% | damage, TRZAW [24]: 0% | herbicidal effect, Aphanes arvensis [25]: 20% | herbicidal effect, Veronica hederifolia [26]: 40% | damage, HORVW ([27]; 50 g of ai/ha): 0% | damage, HORVW ([27]; 100 g of ai/ha): 0% | herbicidal effect, PAPRH ([28]; 50 g of ai/ha): 0% | herbicidal effect, PAPRH ([28]; 100 g of ai/ha): 0%
